Test results taken from a compilation of properties of binary mixtures (doi:10.1007/s10953-022-01241-4).

Assay: xn = mol fraction of the nth substance listed
Conditions: 100 kPa

C[P+](c1ccccc1)(c1ccccc1)c1ccccc1.[Br-] + OCCO
viscosity [mPa·s]
Conditions	293.15 K	298.15 K	303.15 K	308.15 K	313.15 K	318.15 K	323.15 K
x1 = 0.1	45.5	–	27.4	22.37	–	15.1	12.6
x1 = 0.13	56.5	43.3	33.8	27.1	21.86	18.05	14.94
x1 = 0.17	74.7	55.7	43.5	34.5	27.3	21.01	17.81
x1 = 0.2	100.6	74.5	56.2	43.3	34	27.2	21.91
x1 = 0.25	148.7	106.7	78.9	60	46.4	36.4	29
x1 = 0.33	225	158	–	85.5	–	50.5	39.6
